The source of these data is patent publication US10674699B2, “Endophyte enhanced seedlings with increased pest tolerance” (priority 2006, dated 2020).

Data set [1] has as its system Lambdina fiscellaria (hemlock looper) larvae. The experiment in a line: Dietary rugulosin in artificial diet, hemlock looper larvae. It is filed as in vivo. To be noted: 1 week. The method, then: The toxicity of an endophyte toxin on a pest such as hemlock looper is optionally tested according to the following method. The toxin to be tested is incorporated into an artificial diet suitable for pest growth. Artificial diet is prepared in individual cups, containing toxin concentrations of 5 micromolar, 10 micromolar, 25 micromolar, 50 micromolar and 100 micromolar. One 3rd instar insect is added to each of 75 cups per dilution and incubated in a growth chamber under appropriate conditions such as at 22 C, 55% relative humidity with 16 h light/day. After 4 days, the insects are frozen, weighed and their head capsules measured. A reduction in head capsule size (eg. width) or weight compared to a control sample is indicative of the presence of a toxin. One skilled in the art would understand that this method can be modified to test different concentrations of toxin and that the conditions can be modified to test a variety of different pests.
Lambdina fiscellaria eggs (hemlock looper) were purchased from Forestry Canada in three lots. The eggs were incubated at room temperature for 10 d until larvae emerged. Larvae from each batch emerged within two days of each other and were immediately put on diet in cups as above. […] After 1 week on the test diets, the larvae were frozen, weighed and head capsule width determined.

The subject of a further data set is Aspergillus fumigatus. As to the kind of experiment: Fungal growth in budmoth test vials with dietary rugulosin. It is filed as cell-based. The settings on record: A. fumigatus-contaminated larvae; few vials with fungal growth at 100 and 150 μM. The method, then:
Zeiraphera canadensis larvae (spruce budmoth) were collected from the wild near Sussex in mid June. They were immediately put in test vials and tested at rugulosin concentrations of 10, 50, 100 and 150 μM (75 per concentration). After seven days, surviving larvae were frozen and measured.
Many (60%) succumbed to fungal infections (Aspergillus fumigatus) and other unknown causes over the course of rearing. […] However, using the Wilcoxon matched-pairs signed-ranks test, the larvae fed 100 or 150 μM rugulosin in the diet were lighter than those fed the 10 μM rugulosin and control diets (p<0.10). Because of the high percentage of A. fumigatus-contaminated larvae in the experiment, an unanticipated result was the antifungal activity observed above 50 μM, few vials had fungal growth in the tests at 100 μM and 150 μM rugulosin.

The test system of data set [2] is C. fumiferana (spruce budworm) larvae. The experiment in a line: Budworm growth on endophyte-infected nursery trees (mesh bags). Type of data set: in vivo, Choristoneura fumiferana. To be noted: four year old trees, branches above and below 0.5 μg g^−1. The source says:
disease-free second instar spruce budworm larvae as follows: A set number of budworm were placed by hand on lateral branches with buds and then covered with a mesh screen on both endophyte-positive and negative trees. Temperature recorders were placed in the holding area and the progress monitored until the budworm was not greater than sixth instar. At termination, the insects were collected, frozen for subsequent determinations of head capsule width and frozen weight. Samples were collected for toxin analysis to ensure that there was no misclassification of the trees as to their endophyte status.
Nursery experiments: The tests were conducted at the J.D. Irving, Limited Sussex Tree Nursery in New Brunswick, Canada (45° 43′ N, 65° 31′ W; elevation 21.30 m). In two successive years, several hundred seedlings grown as container stock in mulitpot 67 seedling containers were inoculated with the rugulosin-producing endophyte 5WS22E1 (DAOM 229536; CBS 120377). […]
Temperature recorders (Hobo Dataloggers, Onset Computer Corporation, Pocasset, Mass.) were placed in the holding area and the progress monitored until the budworms were not older than sixth instars. […] Head capsule widths were determined using a stereo microscope at 40× with ocular and stage micrometers. […]

In data set [3] the test system is fruit flies (Drosophila melanogaster). The settings on record: Dobias et al. 1980; cited from earlier work.
Data set [4] concerns ovarian cells of the fall armyworm, Spodoptera frugiperda. The settings on record: Watts et al. 2003; cited from earlier work.
In another data set the test system is mice. To be noted: ip in mice; Ueno et al. 1971; cited from earlier work.
The conditions of data set [5]: Breen et al. 1955; cited from earlier work.
For the next data set, the system named is spruce budworm larvae. To be noted: Miller et al. 2002; cited from earlier work.

Regarding `Cc1cc(O)c2c(c1)C(=O)[C@]13C(=C2O)C(=O)[C@@H]2[C@H](O)[C@H]1[C@@H]1[C@@H](O)[C@H]3C(=O)C3=C(O)c4c(O)cc(C)cc4C(=O)[C@]312` [rugulosin], the “dietary rugulosin concentration with significantly reduced head capsule” value in data set [1] came out at 150 µM. Also, the “rugulosin concentration above which antifungal activity was observed” value in the data set with Aspergillus fumigatus is “above 50 μM”. Moreover, in data set [2], the “Pearson correlation between rugulosin concentration and budworm weight” value was −0.288. Further, in data set [3], the “dietary toxicity of rugulosin” value is about 50 µM and the “toxicity to Drosophila melanogaster” value was “toxic”. Further, in data set [4], the “toxicity to cultured cells” value is reported as “toxic”. The LD50 with mice is given as 55 mg kg^−1 BW. Also, in data set [5], the antifungal activity result is “moderately antifungal”. Also, in the data set on spruce budworm larvae, the “toxicity to C. fumiferana larvae in needles” value is “toxic”.
